Experimental findings from ChEMBL document CHEMBL3259593, “Development of [(3)H]2-Carboxy-4,6-dichloro-1H-indole-3-propionic Acid ([(3)H]PSB-12150): A Useful Tool for Studying GPR17” (ACS Med Chem Lett, 2014) are described below.

Test [1] concerns the target T1, Uracil nucleotide/cysteinyl leukotriene receptor (Homo sapiens, UniProt Q13304). As to the kind of experiment: Binding affinity to human GPR17 expressed in CHO-K1 cell membranes after 60 mins by saturation curve study.
The target in test [2] is T1, Uracil nucleotide/cysteinyl leukotriene receptor. As to the kind of experiment: biochemical.
Description: Displacement of [3H]PSB-12150 from human GPR17 expressed in CHO-K1 cell membranes after 60 mins by heterologous competition binding assay
For test [3] the target is unchanged. The conditions noted are these: CHO-K1, 100 uM.
Description: Displacement of [3H]PSB-12150 from human GPR17 expressed in CHO-K1 cell membranes assessed as dissociation half life at 100 uM treated after 1 hr incubation with radioligand by liquid scintillation counting
Test [4] has the same target. The following applies: CHO-K1, 100 uM. This is another data set of the same source.
Description: Displacement of [3H]PSB-12150 from human GPR17 expressed in CHO-K1 cell membranes assessed as association half life at 100 uM by liquid scintillation counting
Test [5] shares this target. As to the kind of experiment: Displacement of [3H]PSB-12150 from human GPR17 expressed in CHO-K1 cell membranes after 60 mins by competition binding assay. In general terms: Loss of bound radioactivity is the signal in a displacement assay; it reports binding, not function.
For test [6] the target is unchanged. As to the kind of experiment: Displacement of [3H]PSB-12150 from human GPR17 expressed in CHO-K1 cell membranes after 60 mins by homologous competition binding assay in presence of pranlukast.
Test [7] has the same target. As to the kind of experiment: Displacement of [3H]PSB-12150 from human GPR17 expressed in CHO-K1 cell membranes up to 1 mM after 60 mins by liquid scintillation counting.
The target is the same in test [8]. As to the kind of experiment: Displacement of [3H]PSB-12150 from human GPR17 expressed in CHO-K1 cell membranes up to 1 uM after 60 mins by liquid scintillation counting.
Test [9] shares this target. As to the kind of experiment: Displacement of [3H]PSB-12150 from human GPR17 expressed in CHO-K1 cell membranes at 100 uM after 60 mins by liquid scintillation counting.

pKd, pKi: −log10 of the molar value. Active and inactive are the calls of the source. The rule behind the calls is not given here.

T1 sequence (Q13304 whole entry): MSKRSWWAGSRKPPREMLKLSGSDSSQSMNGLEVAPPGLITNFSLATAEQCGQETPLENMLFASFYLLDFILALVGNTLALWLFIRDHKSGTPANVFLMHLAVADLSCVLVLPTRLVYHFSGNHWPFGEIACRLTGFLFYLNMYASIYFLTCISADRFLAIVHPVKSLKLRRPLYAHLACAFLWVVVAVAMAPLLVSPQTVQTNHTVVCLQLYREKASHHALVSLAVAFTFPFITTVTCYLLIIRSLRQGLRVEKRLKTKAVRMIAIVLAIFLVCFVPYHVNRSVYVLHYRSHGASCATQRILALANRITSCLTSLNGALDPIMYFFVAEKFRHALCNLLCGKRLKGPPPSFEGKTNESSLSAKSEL

Take `[3H]C([3H])(C(=O)O)C([3H])([3H])c1c(C(=O)O)[nH]c2cc(Cl)cc(Cl)c12`: the pKd (as a rule, the negative decadic logarithm of the Kd, by convention in mol/L) in test [1] was 5.90.
`O=C(/C=C/c1c(C(=O)O)[nH]c2cc(Cl)cc(Cl)c12)Nc1ccccc1` [GAVESTINEL]: the pKi (as a rule, the Ki on a negative log10 scale, so that one unit is a factor of ten) in [2] was 5.79.
On the same count and under the same terms, for `O=C(Nc1cccc2c(=O)cc(-c3nnn[nH]3)oc12)c1ccc(OCCCCc2ccccc2)cc1` [PRANLUKAST] the value was 5.39.
In the case of `O=C(O)CCc1c(C(=O)O)[nH]c2cc(Cl)cc(Cl)c12`, the T1/2 in [3] was determined as 0.3 min; in [4], 1.8 min. Also, the pKi in test [5] is 5.63; in test [6], 5.92.
Take `Nc1ncnc2c1ncn2[C@@H]1O[C@H](COP(=O)(O)OP(=O)(O)OP(=O)(O)O)[C@@H](O)[C@H]1O`: the result in [7] was inactive.
For `CCCCC/C=C\C\C=C/C=C/C=C/[C@@H](SCC(NC(=O)CC[C@H](N)C(=O)O)C(=O)NCC(=O)O)[C@@H](O)CCCC(=O)O` (single isomer, unassigned), the outcome in test [8] was inactive.
For `Nc1nc(=O)c2ncn([C@@H]3O[C@H](COP(=O)(O)OP(=O)(O)OP(=O)(O)O)[C@@H](O)C3O)c2[nH]1` (single isomer, unassigned), the result in test [9] was Active.
`O=c1ccn([C@@H]2O[C@H](COP(=O)(O)OP(=O)(O)OP(=O)(O)O)[C@@H](O)[C@H]2O)c(=O)[nH]1`: the outcome in [7] was inactive.
Take `Nc1ncnc2c1ncn2[C@@H]1O[C@H](COP(=O)(O)OP(=O)(O)O)[C@@H](O)[C@H]1O`: the outcome in test [7] was inactive.
`CC(C)(O)c1ccccc1CC[C@@H](SCC1(CC(=O)O)CC1)c1cccc(/C=C/c2ccc3ccc(Cl)cc3n2)c1` [MONTELUKAST] gave a pKi in test [2] of 5.18.
For `O=c1ccn([C@@H]2O[C@H](COP(=O)(O)OP(=O)(O)O)[C@@H](O)[C@H]2O)c(=O)[nH]1`, the result in test [7] was inactive.
